{"source": "patent US20260234135A1", "about": "“CRYSTALLINE FORMS OR SALTS OF A DEUTERATED COMPOUND” (ALEBUND PHARMACEUTICALS (HONG KONG) LIMITED, priority 2023, published 2026)", "key": {"[1]": {"assay": "Approximate solubility in single solvents at RT", "format": "physicochemical", "experimental": "Approximately 2 mg of sample was added into a 3-mL glass vial. Corresponding solvents were added stepwise (50 μL→50 μL→100 μL→200 μL→600 μL→1000 μL) into the vials until the solids were dissolved visually or a total volume of 2 mL was reached. The ranges of approximate solubility were calculated according to the mass of sample, volume of solvent and observation. Result summarized in Table 3 was used to guide the solvent selection in polymorph screening."}, "[2]": {"assay": "Hygroscopicity evaluation by DVS at 25° C.", "format": "physicochemical", "experimental": "DVS was measured via a SMS (Surface Measurement Systems) DVS Intrinsic. The relative humidity at 25° C. were calibrated against deliquescence point of LiCl, Mg(NO3)2 and KCl."}, "[3]": {"conditions": "for HPLC Purity (area %), main peak RRT 1.00 / HPLC Reults of initial (%): listed as Free acid Form B"}, "physchem": {"assay": "physchem", "conditions": "thermodynamic from solid"}, "[4]": {"conditions": "SGF, 37 °C, simulated gastric fluid"}, "[5]": {"conditions": "pH 4.5 (KAc) buffer, 37 °C, pH 4.5, aqueous buffer"}, "[6]": {"conditions": "pH 6.8 buffer (K2HPO3 + KH2PO3), 37 °C, pH 6.8, aqueous buffer"}, "[7]": {"conditions": "pH 8.0 buffer (K2HPO3 + KH2PO3), 37 °C, pH 8, aqueous buffer"}}, "note": "Where two headings read alike, the source gives them in different places.", "data": [{"smiles": "[2H]C([2H])(Cc1nc(-c2ccccc2)oc1C)Oc1ccc(C[C@H](OC)C(=O)O)c2sccc12", "note": "[AP-303 (818159-01-A)]", "values": [{"measurement": "Solubility", "setting": "[1]; 1,4-Dioxane", "result": "S > 46.0 mg/mL"}, {"measurement": "Solubility", "setting": "[1]; DMSO", "result": "S > 44.0 mg/mL"}, {"measurement": "Solubility", "setting": "[1]; H2O", "result": "S < 1.2 mg/mL"}, {"measurement": "Solubility", "setting": "[1]; THF", "result": "S > 42.0 mg/mL"}, {"measurement": "Solubility", "setting": "[1]; n-Heptane", "result": "S < 1.3 mg/mL"}]}, {"smiles": "[2H]C([2H])(Cc1nc(-c2ccccc2)oc1C)Oc1ccc(C[C@H](OC)C(=O)O)c2sccc12", "note": "[free acid Form B]", "values": [{"measurement": "Hygroscopicity", "setting": "[2]; DVS, 25° C.", "result": "non-hygroscopic"}, {"measurement": "Water uptake up to 80% RH", "setting": "[2]; DVS, 25° C.", "result": 0.07, "unit": "%"}, {"measurement": "Form change after DVS test", "setting": "[2]; XRPD after DVS", "result": "No form change"}, {"measurement": "Area (%) peak 1, RRT 0.88", "setting": "[3]; 40° C./75% RH, 2 weeks", "result": 0.20, "unit": "%"}, {"measurement": "Area (%) peak 2, RRT 1.00 (main peak)", "setting": "[3]; 40° C./75% RH, 2 weeks", "result": 99.50, "unit": "%"}, {"measurement": "Area (%) peak 3, RRT 1.14", "setting": "[3]; 40° C./75% RH, 2 weeks", "result": 0.11, "unit": "%"}, {"measurement": "Area (%) peak 4, RRT 1.34", "setting": "[3]; 40° C./75% RH, 2 weeks", "result": 0.20, "unit": "%"}, {"measurement": "Area (%) peak 1, RRT 0.88", "setting": "[3]; 40° C./75% RH, 4 weeks", "result": 0.23, "unit": "%"}, {"measurement": "Area (%) peak 2, RRT 1.00 (main peak)", "setting": "[3]; 40° C./75% RH, 4 weeks", "result": 99.47, "unit": "%"}, {"measurement": "Area (%) peak 3, RRT 1.14", "setting": "[3]; 40° C./75% RH, 4 weeks", "result": 0.11, "unit": "%"}, {"measurement": "Area (%) peak 4, RRT 1.34", "setting": "[3]; 40° C./75% RH, 4 weeks", "result": 0.19, "unit": "%"}, {"measurement": "Area (%) peak 1, RRT 0.88", "setting": "[3]; 40° C./75% RH, 8 weeks", "result": 0.20, "unit": "%"}, {"measurement": "Area (%) peak 2, RRT 1.00 (main peak)", "setting": "[3]; 40° C./75% RH, 8 weeks", "result": 99.52, "unit": "%"}, {"measurement": "Area (%) peak 3, RRT 1.14", "setting": "[3]; 40° C./75% RH, 8 weeks", "result": 0.09, "unit": "%"}, {"measurement": "Area (%) peak 4, RRT 1.34", "setting": "[3]; 40° C./75% RH, 8 weeks", "result": 0.19, "unit": "%"}, {"measurement": "HPLC Purity (area %), main peak RRT 1.00", "setting": "[3]; 40° C./75% RH/open, 2 weeks", "result": 99.50, "unit": "area %"}, {"measurement": "HPLC Purity (area %), main peak RRT 1.00", "setting": "[3]; 40° C./75% RH/open, 4 weeks", "result": 99.47, "unit": "area %"}, {"measurement": "HPLC Reults of initial (%)", "setting": "[3]; 40° C./75% RH/open, 4 weeks", "result": 100.00, "unit": "%"}, {"measurement": "HPLC Purity (area %), main peak RRT 1.00", "setting": "[3]; 40° C./75% RH/open, 8 weeks", "result": 99.52, "unit": "area %"}, {"measurement": "HPLC Reults of initial (%)", "setting": "[3]; 40° C./75% RH/open, 8 weeks", "result": 100.05, "unit": "%"}, {"measurement": "Area (%) peak 1, RRT 0.88", "setting": "[3]; 60° C., 2 weeks", "result": 0.20, "unit": "%"}, {"measurement": "Area (%) peak 2, RRT 1.00 (main peak)", "setting": "[3]; 60° C., 2 weeks", "result": 99.49, "unit": "%"}, {"measurement": "Area (%) peak 3, RRT 1.14", "setting": "[3]; 60° C., 2 weeks", "result": 0.11, "unit": "%"}, {"measurement": "Area (%) peak 4, RRT 1.34", "setting": "[3]; 60° C., 2 weeks", "result": 0.20, "unit": "%"}, {"measurement": "Area (%) peak 1, RRT 0.88", "setting": "[3]; 60° C., 4 weeks", "result": 0.22, "unit": "%"}, {"measurement": "Area (%) peak 2, RRT 1.00 (main peak)", "setting": "[3]; 60° C., 4 weeks", "result": 99.47, "unit": "%"}, {"measurement": "Area (%) peak 3, RRT 1.14", "setting": "[3]; 60° C., 4 weeks", "result": 0.11, "unit": "%"}, {"measurement": "Area (%) peak 4, RRT 1.34", "setting": "[3]; 60° C., 4 weeks", "result": 0.20, "unit": "%"}, {"measurement": "Area (%) peak 1, RRT 0.88", "setting": "[3]; 60° C., 8 weeks", "result": 0.20, "unit": "%"}, {"measurement": "Area (%) peak 2, RRT 1.00 (main peak)", "setting": "[3]; 60° C., 8 weeks", "result": 99.51, "unit": "%"}, {"measurement": "Area (%) peak 3, RRT 1.14", "setting": "[3]; 60° C., 8 weeks", "result": 0.10, "unit": "%"}, {"measurement": "Area (%) peak 4, RRT 1.34", "setting": "[3]; 60° C., 8 weeks", "result": 0.20, "unit": "%"}, {"measurement": "HPLC Purity (area %), main peak RRT 1.00", "setting": "[3]; 60° C./close, 2 weeks", "result": 99.49, "unit": "area %"}, {"measurement": "HPLC Purity (area %), main peak RRT 1.00", "setting": "[3]; 60° C./close, 4 weeks", "result": 99.47, "unit": "area %"}, {"measurement": "HPLC Reults of initial (%)", "setting": "[3]; 60° C./close, 4 weeks", "result": 100.00, "unit": "%"}, {"measurement": "HPLC Purity (area %), main peak RRT 1.00", "setting": "[3]; 60° C./close, 8 weeks", "result": 99.51, "unit": "area %"}, {"measurement": "HPLC Reults of initial (%)", "setting": "[3]; 60° C./close, 8 weeks", "result": 100.04, "unit": "%"}, {"measurement": "Area (%) peak 1, RRT 0.88", "setting": "[3]; Initial", "result": 0.23, "unit": "%"}, {"measurement": "Area (%) peak 2, RRT 1.00 (main peak)", "setting": "[3]; Initial", "result": 99.47, "unit": "%"}, {"measurement": "Area (%) peak 3, RRT 1.14", "setting": "[3]; Initial", "result": 0.10, "unit": "%"}, {"measurement": "Area (%) peak 4, RRT 1.34", "setting": "[3]; Initial", "result": 0.20, "unit": "%"}, {"measurement": "HPLC Purity (area %), main peak RRT 1.00", "setting": "[3]; Initial", "result": 99.47, "unit": "area %"}, {"measurement": "solubility at 2 h", "setting": "physchem; FaSSIF-V2, 37 °C, fassif", "result": 280, "unit": "µg/mL"}, {"measurement": "solubility at 24 h", "setting": "physchem; FaSSIF-V2, 37 °C, fassif", "result": 290, "unit": "µg/mL"}, {"measurement": "solubility at 2 h", "setting": "physchem; FeSSIF-V2, 37 °C, fessif", "result": 630, "unit": "µg/mL"}, {"measurement": "solubility at 24 h", "setting": "physchem; FeSSIF-V2, 37 °C, fessif", "result": 650, "unit": "µg/mL"}, {"measurement": "solubility at 2 h", "setting": "physchem; [4]", "result": 11, "unit": "µg/mL"}, {"measurement": "solubility at 24 h", "setting": "physchem; [4]", "result": 9.6, "unit": "µg/mL"}, {"measurement": "solubility at 2 h", "setting": "physchem; [5]", "result": 0.3, "unit": "µg/mL"}, {"measurement": "solubility at 24 h", "setting": "physchem; [5]", "result": 0.4, "unit": "µg/mL"}, {"measurement": "solubility at 2 h", "setting": "physchem; [6]", "result": 150, "unit": "µg/mL"}, {"measurement": "solubility at 24 h", "setting": "physchem; [6]", "result": 170, "unit": "µg/mL"}, {"measurement": "solubility at 2 h", "setting": "physchem; [7]", "result": 1900, "unit": "µg/mL"}, {"measurement": "solubility at 24 h", "setting": "physchem; [7]", "result": 1900, "unit": "µg/mL"}, {"measurement": "solubility at 2 h", "setting": "physchem; water, 37 °C", "result": 36, "unit": "µg/mL"}]}]}
